Results reported in patent publication US11834401B2, “Treating and preventing diseases by modulating cell mechanics” (THE JOHNS HOPKINS UNIVERSITY, priority 2013, dated 2023).

Legend:
[1] = system: NLS-tdTomato expressing Dictyostelium cells
Protocol: NLS-tdTomato expressing Dictyostelium cells were challenged with […] compounds from the ChemBridge Divert-SET library and imaged over three days. Raw data was segmented by CIMPAQ, a designed analytical platform, which rank ordered hits based on their cytokinesis or mitotic inhibitory activity, or lethality. Hits were confirmed through a dose-dependent secondary screening.
Ax3::NLS-tdTomato cells were plated on 384-well COP plates with a MicroFloSelect microplate dispenser (BioTek, Winooski, Vt.) at volumes of 80 μl with a cell concentration of 1000 cells/ml for the 24- and 48-hr time points and at the same volume with a cell concentration of 220 cells/ml for the 72-hr time point. Each plate contained four rows of untreated cells with 0.2% DMSO. For the remaining wells, […] of each small molecule maintained at the Johns Hopkins ChemCORE facility, was added, with a final DMSO concentration of 0.2%. Almost half of the ChemBridge Divert-SET library, which is a 50,000 compound chemical diversity library, was screened over a three-day period on a Becton Dickinson Pathway 855 Bioimager System using a 20× objective (NA 0.75). Each image consisted of a montage of four images collected around the center of the well, resulting in a total size of 1344×1024 pixels per image.
Secondary chemical screening was carried out in quadruplicate, with identical culturing conditions as to the primary screen. 14 mM stocks of each compounds dissolved in 100% DMSO were diluted to the following final concentrations: […], 3.5 nM, 35 nM, 350 nM, 3.5 μM, and 35 μM.
Raw image files from both the primary and secondary screening were processed through CIMPAQ (FIGS. 9E and 9F). The single wavelength fluorescence images were converted from 16-bit format to 8-bit format. The MATLAB Image Processing Toolbox was utilized to segment the images in order to identify the nuclei and cytoplasm. The number of nuclei within each segmented cell was quantified to produce a histogram of nuclei per cell for each image (FIG. 9G). All segmented cells that were coincident with the image edge were disregarded.
Image analysis using CIMPAQ: From the histogram of nuclei per cell count, the ratio of the number of multinucleate cells to the number of mononucleate cells and the ratio of the number of binucleate cells to the number of mononucleate cells were computed. Multinucleate cells are defined as cells that contain >2 nuclei. The distribution of both ratios across multiple wells were simultaneously visualized using a scatter plot, with the ratio of multinucleate cells to mononucleate cells plotted on the x-axis and the ratio of binucleate cells to mononucleate cells plotted on the y-axis (FIGS. 9H and 9I). Other information such as the average number of nuclei per cell, the mean nuclear area, and the normalized histogram with respect to total cell number were also computed.
Hit identification using CIMPAQ: Compounds that generate an increase in the number of multinucleate (>2 nuclei/cell) cells are considered cytokinesis inhibitors. Because nearly all cultured cells, including Dictyostelium, have a low background (typically <5% for WT) of non-mononucleate cells, CIMPAQ spreads the data for each sample by determining the ratio (bi:mono) of binucleate (2 nuclei/cell) to mononucleate cells and the ratio (multi:mono) of multinucleate (>2 nuclei/cell) to mononucleate cells. These two ratios then define a set of Cartesian coordinates, describing the effect of each compound on a given cell-line. The coordinates for each compound are plotted on a two-dimensional graph. CIMPAQ fits the control data to a two-dimensional Gaussian distribution (FIG. 9H) and determines the contour lines for two standard deviations (2SD), 3SD, etc. from the control mean (FIG. 9I).
Hit compounds are rank-ordered based on how many SDs away they are from the untreated wells.

Dictyostelium cells = test: Micropipette aspiration cortical tension, Dictyostelium; assay type: cell-based, Dictyostelium discoideum
Protocol: (§1) Micropipette aspiration was used for cortical tension and creep response measurements. Confocal imaging was performed on a Zeiss 510 Meta with a 63× (numerical aperture [NA] 1.4) objective (Carl Zeiss, Jena, Germany). Epifluorescence and TIRF imaging was performed in a 22° C. temperature controlled room with an Olympus IX81 microscope using a 40× (NA 1.3) or 60× (NA 1.49) objective and a 1.4× optovar (Olympus, Center Valley, Pa.), as previously described. Image analysis was performed with ImageJ (rsb.info.nih.gov/ij).
The instrumental and experimental setups have been previously described (Effler J C, et al., 2006; Kee Y-S, et al., 2013). Micropipette aspiration assays were all carried out in growth media with 0.1% DMSO. For cortical tension measurements of Dictyostelium cells, pressure was applied to the cell cortex with a micropipette (2-3 m radius, Rp) to the equilibrium pressure (ΔP) where the length of the cell inside the pipette (Lp) was equal to Rp. The effective cortical tension (Teff) was calculated by applying the Young-Laplace equation: ΔP=2Teff(1/Rp-1/Rc), where Rc is the radius of the cell and ΔP is the equilibrium pressure when Lp=Rp (Derganc J, et al., 2000; Octtaviani E, et al., 2006). For creep tests on mammalian strains, a constant aspiration stress was applied over 60 s. The micropipette radius was 3.5-4.5 m. For quantification, the Lp/Rp ratio values was measured every two seconds and plotted as a function of time. A10.7 and HEK293 cells could only be aspirated at a low pressure range (0.15 nN/μm^2), while HPDE, ASPC-1, and HL-60 cells could be aspirated at higher pressure ranges (0.25 nN/μm^2) because they were stiffer.

myosin II = target: T1, myosin II (Dictyostelium discoideum, UniProt P08799); test: Myosin II cortical localization by SIM, TIRF and confocal imaging; assay type: cell-based
T1 construct: expressed in transfected cells; host or cells: Dictyostelium discoideum myoII null cells rescued with GFP-myosin II
Protocol: as §1
Imaging conditions during primary screen are described above. All other image analysis was performed as previously described (Kee Y S, et al., 2012). Cells were transferred from Petri dishes (with 0.1% DMSO incubation in growth media of 4 hrs) to imaging chambers and allowed to adhere for 20 min in growth media with 0.1% DMSO. After the cells adhered, the growth media was replaced with 2-(N-morpholino)ethanesulfonic acid (MES) starvation buffer (50 mM MES, pH 6.8, 2 mM MgCl2, 0.2 mM CaCl2) with 0.1% DMS. Confocal imaging was performed on aZeiss 510 Meta with a 63× (numerical aperture [NA] 1.4) objective (Carl Zeiss, Jena, Germany). Epifluorescence and TIR imaging was performed in a 22° C. temperature controlled room with an Olympus IX81 microscope using a 40× (NA 1.3) or 60× (NA […]) objective and a 1.4× optovar (Olympus, Center Valley, Pa.), as previously described. Image analysis was performed with ImageJ (rsb.info.nih.gov/ij). Many data sets were independently analyzed by multiple investigators.

T1 sequence (P08799 whole entry): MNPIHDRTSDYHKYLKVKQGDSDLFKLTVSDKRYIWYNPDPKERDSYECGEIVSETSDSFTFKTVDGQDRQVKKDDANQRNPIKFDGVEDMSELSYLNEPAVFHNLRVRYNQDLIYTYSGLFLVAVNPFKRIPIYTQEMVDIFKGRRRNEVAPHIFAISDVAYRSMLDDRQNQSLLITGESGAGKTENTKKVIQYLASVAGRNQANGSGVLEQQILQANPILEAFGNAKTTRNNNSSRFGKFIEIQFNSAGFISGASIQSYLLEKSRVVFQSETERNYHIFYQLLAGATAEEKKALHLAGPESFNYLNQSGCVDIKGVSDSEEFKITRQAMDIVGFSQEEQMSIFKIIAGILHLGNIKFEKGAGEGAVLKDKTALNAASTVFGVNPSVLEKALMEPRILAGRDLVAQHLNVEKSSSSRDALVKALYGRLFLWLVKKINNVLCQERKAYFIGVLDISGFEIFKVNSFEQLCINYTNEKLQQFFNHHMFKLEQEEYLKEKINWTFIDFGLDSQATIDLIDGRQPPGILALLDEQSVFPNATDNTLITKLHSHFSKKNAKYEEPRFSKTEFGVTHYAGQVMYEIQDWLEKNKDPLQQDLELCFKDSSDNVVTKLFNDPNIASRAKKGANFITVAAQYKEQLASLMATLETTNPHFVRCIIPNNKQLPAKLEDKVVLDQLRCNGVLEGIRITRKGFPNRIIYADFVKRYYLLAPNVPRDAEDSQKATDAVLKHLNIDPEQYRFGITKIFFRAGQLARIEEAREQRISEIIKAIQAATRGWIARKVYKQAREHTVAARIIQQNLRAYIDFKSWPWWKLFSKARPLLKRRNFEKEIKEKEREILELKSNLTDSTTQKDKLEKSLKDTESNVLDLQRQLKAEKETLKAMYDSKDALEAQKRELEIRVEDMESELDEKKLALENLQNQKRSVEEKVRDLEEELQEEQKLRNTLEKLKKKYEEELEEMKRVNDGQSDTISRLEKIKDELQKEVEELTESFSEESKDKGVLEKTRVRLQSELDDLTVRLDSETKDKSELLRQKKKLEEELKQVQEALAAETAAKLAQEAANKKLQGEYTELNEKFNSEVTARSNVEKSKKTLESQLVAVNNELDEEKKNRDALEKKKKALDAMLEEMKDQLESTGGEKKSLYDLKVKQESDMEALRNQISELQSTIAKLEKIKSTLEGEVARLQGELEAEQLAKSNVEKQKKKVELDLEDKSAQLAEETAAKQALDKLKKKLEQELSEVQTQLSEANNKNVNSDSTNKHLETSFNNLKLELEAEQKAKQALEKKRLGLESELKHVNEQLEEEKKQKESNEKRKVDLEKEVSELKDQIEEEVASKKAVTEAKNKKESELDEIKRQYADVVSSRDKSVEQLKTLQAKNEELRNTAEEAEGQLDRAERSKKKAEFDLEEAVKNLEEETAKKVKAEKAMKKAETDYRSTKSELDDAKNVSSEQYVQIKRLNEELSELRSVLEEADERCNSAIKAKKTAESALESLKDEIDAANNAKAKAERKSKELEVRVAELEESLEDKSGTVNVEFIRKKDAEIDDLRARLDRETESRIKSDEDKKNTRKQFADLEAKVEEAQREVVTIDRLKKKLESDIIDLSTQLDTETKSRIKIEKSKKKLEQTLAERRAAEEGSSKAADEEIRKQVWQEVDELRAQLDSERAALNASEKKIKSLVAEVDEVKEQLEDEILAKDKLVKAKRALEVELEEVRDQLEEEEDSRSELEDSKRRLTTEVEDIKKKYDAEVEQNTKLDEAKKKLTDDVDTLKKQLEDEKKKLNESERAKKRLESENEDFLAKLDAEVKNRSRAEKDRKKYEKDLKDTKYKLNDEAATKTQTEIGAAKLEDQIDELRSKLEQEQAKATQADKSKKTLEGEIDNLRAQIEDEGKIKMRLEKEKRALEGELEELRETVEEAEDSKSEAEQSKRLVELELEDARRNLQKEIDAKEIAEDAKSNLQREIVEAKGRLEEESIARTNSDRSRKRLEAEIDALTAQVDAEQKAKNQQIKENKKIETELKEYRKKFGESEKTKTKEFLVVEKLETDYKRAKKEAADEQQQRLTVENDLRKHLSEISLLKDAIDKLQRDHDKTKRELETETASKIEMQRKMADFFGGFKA

Compound | cytokinesis inhibition / cellular effect of a single component ([1]; compound alone) | effect on cortical tension (Dictyostelium cells; WT cells) | changes in myosin II cortical distribution (TIRF) (myosin II; 500 nM time course) | lethality to Dictyostelium cells ([1]; 5000 nM) | change in cortical tension, myosin II null cells (Dictyostelium cells; myoI null cells as printed) | change in cortical tension, S456L myosin cells (Dictyostelium cells; myoII::GFP-S456L cells) | time to significant localization of GFP-myosin II (myosin II; 500 nM) [min] | time for myosin II localization to revert to pre-treatment levels after removal (myosin II; 500 nM, washout) [min] | increase in myosin II localization at the cortex by TIRF (myosin II; 500 nM, within 10 min) [fold] | subset of cells with BTFs accumulated into ribbon-like rings (myosin II; TIRF) [%] | increase in myosin II at the cortex (myosin II; TIRF time course) [fold] | time for myosin II bipolar thick filaments to accumulate at the cortex (myosin II; TIRF time course) [min] | time to steady state of myosin II cortical accumulation (myosin II; TIRF time course) [min] | myosin II accumulation in cortexillin I deleted cells (myosin II; cortI::GFPmyo cells) | cortical enrichment of myosin II (cortex to cytoplasm) (myosin II; each degradation product tested)
Nc1ccc(Cl)c(Cl)c1 [3,4-DCA, 3,4-dichloroaniline] | limited cellular effect | had no effect | Neither 3,4-DCA nor the urea result in changes in myosin II cortical distribution |  |  |  |  |  |  |  |  |  |  |  | 
CC(=O)c1ccc(O)cc1 [4-HAP, 4-hydroxyacetophenone] |  |  |  | lethal | did not experience a similar shift in mechanics | did not have a change in cortical tension | ≤ 10 | ≤ 15 | 2 | 15 | 2.5 | ≤ 5 | 15 | abolished | 4-HAP alone drives myosin II relocalization
